Laboratory results from patent US20130039929A1, “METHOD TREATING BREAST CANCER” (priority 2010, published 2013).

Tested on: HIF-1 dependent transcription
Assay: 5×HRE luciferase reporter assay of hypoxia (CoCl2)-induced transcription in MDAMB-231 cells
Format: cell-based
Conditions: CoCl2 along with thalidomide 10 μM
Source text: FIGS. 5A-5E. FIG. 5A. Schematic map of luciferase reporter used; HRE: hypoxia responsive element. FIG. 5B. Assay of hypoxia-induced luciferase activity in the presence of each indicated siRNA transfection. **p<0.001, * p<0.01 versus control/CoCl2 one-way ANOVA, Bonferroni post test. FIG. 5C. Western blot showing the efficiency of knockdown for each βarr isoform. FIG. 5D. Assay of hypoxia induced luciferase reporter activity in Mouse Embryonic Fibroblasts (MEFs) that are null for both βarr1 and 2 under control and βarr1 replete conditions. *** p<0.001, between the two cobalt treated samples, Bonferroni post test, one-way ANOVA, n=3. FIG. 5E. Western blot of lysates showing expression of transfected βarr1.
FIGS. 7A-7D. FIG. 7A. […] FIG. 7B. […] FIG. 7C. […] FIG. 7D.
To test if the above β-arrestin1-HIF-1α interaction has functional consequences, an analysis was made of the effect of β-arrestin1 expression on HIF-1-mediated transcription during hypoxia. One of the most characterized HIF-regulated genes is the potent endothelial mitogen, VEGF-A, which regulates endothelial cell proliferation and blood vessel formation in both normal and cancerous tissues (Liu et al, Circ. Res. 77:638-643 (1995)). The VEGF-A gene contains a HRE in its 5′ UTR (untranslated region) and hypoxia induces a rapid and sustained increase in VEGF-A mRNA levels. […]

## O=C1CCC(N2C(=O)c3ccccc3C2=O)C(=O)N1 (stereo not shown) [thalidomide]
  HIF-1 dependent transcriptional response (5×HRE luciferase reporter activity): complete inhibition
